21 compounds from ChEMBL document CHEMBL2016501, “Design, synthesis, and biological activity of novel 1,4-disubstituted piperidine/piperazine derivatives as CCR5 antagonist-based HIV-1 entry inhibitors” (Bioorg Med Chem Lett, 2012) can be followed below.

For orientation: IC50 means the concentration needed to halve the response being measured. The CC50 is the concentration at which the toxic effect on the cells reaches its halfway point. Usually AUC(0-t) stands for the area under the concentration-time curve up to a stated or last time point. The bioavailability is the share of a dose that reaches the circulation, judged against a reference dose that is usually intravenous. A higher bioavailability goes with good availability. Broadly, the solubility is how much of the substance goes into solution per volume. The low end stands for a poorly soluble substance, the high end for a readily soluble substance. In general, EC50 refers to the concentration giving half of the maximal effect. Read a low EC50 as an effect from little substance.

Data set [1] has as its system Human immunodeficiency virus 1. As to the kind of experiment: Antiviral against R5 tropic HIV1 Bal infected in human CEMx174 5.25M7 cells assessed as inhibition of viral replication. The format is functional, organism-based. As to conditions: Human immunodeficiency virus 1, Bal.
The nature of data set [2]: Cytotoxicity against human CEMx174 5.25M7. The conditions noted are these: CEMx174 5.25M7 cells.
Data set [3] in a line: Selectivity ratio of CC50 for human CEMx174 5.25M7 cells to IC50 for HIV1 Bal infected in CEMx174 5.25M7 cells. The format is ADME, cell-based. The conditions noted are these: read-out: Ratio CC50/IC50.
Data set [4] can be described thus: Terminal half life in Sprague-Dawley rat at 1 mg/kg, iv. The format is ADME, organism-based. As to conditions: in vivo, read-out: beta t1/2 (converted). On the set-up: dose 1 mg/kg, route intravenous.
A short description of data set [5]: Terminal half life in Sprague-Dawley rat at 5 mg/kg, po. The format is ADME, organism-based. As to conditions: in vivo, read-out: beta t1/2 (converted). Details: dose 5 mg/kg, route oral.
A short description of data set [6]: AUC (0 to 12 hrs) in Sprague-Dawley rat at 1 mg/kg, iv. On the set-up: time < 12 hr, dose 1 mg/kg, route intravenous. The format is ADME, organism-based. The conditions noted are these: plasma.
Data set [7] can be described thus: AUC (0 to 12 hrs) in Sprague-Dawley rat at 5 mg/kg, po. The format is ADME, organism-based. Details: time < 12 hr, dose 5 mg/kg, route oral. The conditions noted are these: plasma.
Data set [8] in a line: Oral bioavailability in Sprague-Dawley rat at 5 mg/kg. The format is ADME, organism-based. The conditions noted are these: in vivo.
Data set [9] has as its target Voltage-gated inwardly rectifying potassium channel KCNH2 (Homo sapiens, UniProt Q12809). As to the kind of experiment: Inhibition of human Erg expressed in HEK293 cells by whole cell patch clamp assay. The format is cell-based. (In general: In patch-clamp work, channel activity is measured electrically.)
Another data set deals with hERG. The experiment in a line: Selectivity ratio of IC50 for human Erg to IC50 for HIV1 Bal infected in human CEMx174 5.25 cells. The format is ADME, cell-based. As to conditions: HIV1 Bal infected CEMx174 5.25 cells, read-out: Ratio IC50.
Data set [10] can be described thus: Solubility of the compound in 10 mM phosphate sodium buffer at pH 7.4 at 25 degC. The format is physicochemical.
The subject of data set [11] is Human immunodeficiency virus 1. The experiment in a line: Antiviral activity against HIV1. The format is functional, organism-based.

Chain of Voltage-gated inwardly rectifying potassium channel KCNH2 (Q12809 whole entry): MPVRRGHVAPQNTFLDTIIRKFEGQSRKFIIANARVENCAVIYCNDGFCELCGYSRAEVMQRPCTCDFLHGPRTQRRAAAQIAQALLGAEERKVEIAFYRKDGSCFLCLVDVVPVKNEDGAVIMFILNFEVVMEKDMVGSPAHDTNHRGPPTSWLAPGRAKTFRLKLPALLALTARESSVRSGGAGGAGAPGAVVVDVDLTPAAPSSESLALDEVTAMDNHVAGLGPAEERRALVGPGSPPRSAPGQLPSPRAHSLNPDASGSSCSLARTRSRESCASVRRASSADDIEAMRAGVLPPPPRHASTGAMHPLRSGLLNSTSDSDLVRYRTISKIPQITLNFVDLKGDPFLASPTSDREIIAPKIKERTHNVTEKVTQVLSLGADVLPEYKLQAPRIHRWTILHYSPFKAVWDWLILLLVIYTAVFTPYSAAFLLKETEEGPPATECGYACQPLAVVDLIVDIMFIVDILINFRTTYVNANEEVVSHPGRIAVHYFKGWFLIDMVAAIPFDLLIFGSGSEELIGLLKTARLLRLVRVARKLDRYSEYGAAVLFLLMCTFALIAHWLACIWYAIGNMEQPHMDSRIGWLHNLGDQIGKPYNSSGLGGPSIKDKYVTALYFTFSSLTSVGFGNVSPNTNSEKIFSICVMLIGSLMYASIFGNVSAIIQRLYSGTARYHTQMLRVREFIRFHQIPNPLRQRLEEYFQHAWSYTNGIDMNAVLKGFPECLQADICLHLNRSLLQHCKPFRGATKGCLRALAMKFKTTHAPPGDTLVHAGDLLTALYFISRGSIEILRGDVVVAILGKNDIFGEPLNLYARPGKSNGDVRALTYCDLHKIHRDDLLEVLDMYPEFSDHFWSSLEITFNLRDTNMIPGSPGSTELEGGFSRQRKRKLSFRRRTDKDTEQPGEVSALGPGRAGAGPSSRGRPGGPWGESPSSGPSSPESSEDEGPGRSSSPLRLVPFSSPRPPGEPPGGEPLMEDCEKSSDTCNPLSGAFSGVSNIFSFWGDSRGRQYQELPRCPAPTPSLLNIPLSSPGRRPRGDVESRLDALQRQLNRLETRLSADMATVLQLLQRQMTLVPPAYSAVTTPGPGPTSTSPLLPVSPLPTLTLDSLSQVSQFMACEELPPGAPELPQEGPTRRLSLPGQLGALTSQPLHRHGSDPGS

Consider `CC(=O)N1CCC(C(=O)N(CCCN2CCN(Cc3ccc(Cl)cc3)CC2)c2ccc(C)c(Cl)c2)CC1`, for which the IC50 in data set [1] was found to be 0.00656 µM. In addition, in [2], it took 37.6 µM to reach half-maximal cytotoxicity (CC50). Further, the selectivity ratio in data set [3] was 5730.
Take `CCN(Cc1ccccc1)C(=O)C1CCN(CCCN(C(=O)C2CCN(C(C)=O)CC2)c2ccc(C)c(Cl)c2)CC1`: the IC50 in [1] turned out to be 0.0599 µM. For the same compound, it took 83.9 µM to reach half-maximal cytotoxicity in data set [2] (CC50). Also, the selectivity ratio in data set [3] was 1400.
In the same order, the values of `CC(=O)N1CCC(C(=O)N(CCCN2CCC(CNC(=O)c3cnccn3)CC2)c2ccc(C)c(Cl)c2)CC1` are 0.0203 µM, greater than 52.4 µM and greater than 2580.
In the same order, the values of `CC(=O)N1CCC(C(=O)N(CCCN2CCC(CNC(=O)c3ccsc3)CC2)c2ccc(C)c(Cl)c2)CC1` are 0.0875 µM, greater than 51.9 µM and greater than 593.
In the same order, the values of `CC(=O)N1CCC(C(=O)N(CCCN2CCC(CNc3cc(C)ccn3)CC2)c2ccc(C)c(Cl)c2)CC1` are 1.83 µM, 17.9 µM and 10.
Regarding `CC(=O)N1CCC(C(=O)N(CCCN2CCC(CNc3ncccn3)CC2)c2ccc(C)c(Cl)c2)CC1`, in data set [1], the IC50 came to 0.0102 µM. In data set [2], the CC50 is greater than 55.1 µM. Also, the selectivity ratio in data set [3] was greater than 5330.
Turning to `CC(=O)N1CCC(C(=O)N(CCCN2CCC(Oc3ccccc3)CC2)c2ccc(C)c(Cl)c2)CC1`, the IC50 in data set [1] came out at 0.0523 µM. The compound also showed a CC50 in data set [2] greater than 56.6 µM. In addition, the selectivity ratio in data set [3] is greater than 1080.
In the same order, the values of `CC(=O)N1CCC(C(=O)N(CCCN2CCN(Cc3ccccc3)CC2)c2ccc(C)c(Cl)c2)CC1` are 0.0149 µM, 101 µM and 6800.
In the same order, the values of `CC(=O)N1CCC(C(=O)N(CCCN2CCN(C(=O)c3ccccc3)CC2)c2ccc(C)c(Cl)c2)CC1` are 0.147 µM, 97.8 µM and 663.
On to `CC(=O)N1CCC(C(=O)N(CCCN2CCN(Cc3cnc(Cl)s3)CC2)c2ccc(C)c(Cl)c2)CC1`, for which the IC50 in [1] was determined as 0.0116 µM. In data set [2], this compound displayed a CC50 greater than 52.4 µM. The selectivity ratio in data set [3] was greater than 4510.
In the case of `CC(=O)N1CCC(C(=O)N(CCCN2CCN(Cc3ccncc3)CC2)c2ccc(C)c(Cl)c2)CC1`, in data set [1], the IC50 is 0.00907 µM. Moreover, in data set [2], the CC50 is greater than 56.7 µM. The selectivity ratio in [3] is greater than 6150.
In the same order, the values of `CC(=O)N1CCC(C(=O)N(CCCN2CCN(Cc3cccnc3)CC2)c2ccc(C)c(Cl)c2)CC1` are 0.0327 µM, greater than 56.7 µM and greater than 1740.
In the same order, the values of `CC(=O)N1CCC(C(=O)N(CCCN2CCN(Cc3ccc(Cl)nc3)CC2)c2ccc(C)c(Cl)c2)CC1` are 0.00363 µM, greater than 53.1 µM and greater than 14500.
As for `CC(=O)N1CCC(C(=O)N(CCCN2CCN(Cc3ccc(F)cc3)CC2)c2ccc(C)c(Cl)c2)CC1.Cl`, the IC50 in data set [1] was 0.00617 µM; in data set [9] it was 1.82 µM. Moreover, in data set [2], the CC50 was greater than 100 µM. For the same compound, the values for the selectivity ratio (in [3]; with hERG) were greater than 16200 and 295, respectively. The half-life was 0.59 h in data set [4] and 0.76 h in data set [5]. Further, the AUC(0-t) at 12 h in [6] worked out at 209 ng·h/mL; in data set [7] it was 587 ng·h/mL. Also, the bioavailability in data set [8] turned out to be 56%. The concentration in solution in data set [10] (solubility) was 25000 µg/mL.
Turning to `CC(=O)N1CCC(C(=O)N(CCCN2CCN(Cc3ccc(S(C)(=O)=O)cc3)CC2)c2ccc(C)c(Cl)c2)CC1`, the IC50 in [1] was determined as 0.00399 µM. In [2], this compound had a CC50 greater than 49.3 µM. Also, the selectivity ratio in data set [3] is greater than 12100.
With `CC(=O)N1CCC(C(=O)N(CCCN2CCN(c3ccccn3)CC2)c2ccc(C)c(Cl)c2)CC1`, the 50% inhibitory concentration (IC50) in [1] is 0.0563 µM. In data set [2], the CC50 was greater than 58.3 µM. The selectivity ratio in [3] is greater than 1040.
In the same order, the values of `CC(=O)N1CCC(C(=O)N(CCCN2CCN(Cc3ccc(C#N)cc3)CC2)c2ccc(C)c(Cl)c2)CC1` are 0.00901 µM, greater than 100 µM and greater than 11100.
Turning to `CC(=O)N1CCC(C(=O)N(CCCN2CCN(Cc3ccc(C(F)(F)F)cc3)CC2)c2ccc(C)c(Cl)c2)CC1`, the IC50 in data set [1] is 0.00185 µM. In data set [2], the CC50 stood at 30.5 µM. In addition, the selectivity ratio in [3] is 16500.
As to `CC(=O)N1CCC(C(=O)N(CCCN2CCC(Cc3ccc(C(N)=O)cc3)CC2)c2ccc(C)c(Cl)c2)CC1.Cl`, the IC50 in data set [1] was 0.00248 µM. Further, the CC50 in [2] was greater than 100 µM. Further, the selectivity ratio in [3] is greater than 40300. Further, the half-life in [4] was 2.25 h; in data set [5], 4.25 h. Also, the results for the AUC(0-t) at 12 h in [6] and in data set [7] were 328 ng·h/mL and 22.7 ng·h/mL, respectively. Further, in data set [8], the bioavailability was 1.4%. This compound also had a solubility in [10] of 2000 µg/mL.
Consider `CCN(C(=O)Cc1ccccc1)C1CCN(CCCN(C(=O)C2CCN(C(C)=O)CC2)c2ccc(C)c(Cl)c2)CC1.Cl`, for which the IC50 in data set [1] is 0.00523 µM. This compound also gave a CC50 in data set [2] of 36.2 µM. Besides, in data set [3], the selectivity ratio came to 6920. The solubility in data set [10] was less than 2000 µg/mL. The compound also displayed a 50% effective concentration (EC50) in data set [11] of 0.0025 µM.
In the case of `CC(=O)N1CCC(C(=O)N(CCCN2CC3CN(C(=O)c4c(C)ncnc4C)CC3C2)c2ccc(C)c(Cl)c2)CC1` (configuration not stated), a half-maximal response in data set [11] (EC50) required 0.0027 µM. This counts as single-digit nanomolar.
